Results: US12473296B2, “Perk inhibiting compounds” (HiberCell, Inc., priority 2019, dated 2025)

Key:
[1] = molecular target: EIF2AK3 (PERK) catalytic domain (amino acids 536-1116) (Homo sapiens (Human), UniProt Q9NZJ5); experiment: PERK in vitro activity assay (isolated), TR-FRET kinase assay; settings: isolated PERK enzyme, 1.5 μM ATP, GFP-eIF2a substrate; read-out: Biochemical IC50
Summary of the method: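 Human PERK catalytic domain (aa 536-1116) with 100-200 nM GFP-eIF2a in 50 mM HEPES pH 7.5, 10 mM MgCl2, 1.0 mM EGTA, 0.01% Brij-35; enzyme-started reaction run 45 min at room temperature. Stopped with 10 mM EDTA, 2 nM Tb-anti-phospho-eIF2a added for 90 min; IC50 from TR-FRET ratio by 4-parameter logistic fit.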

PERK = PERK (Homo sapiens (Human), UniProt Q9NZJ5); experiment: PERK cellular assay (TR-FRET, HEK293-EGFP-eIF2α cells, tunicamycin-induced ER stress); assay type: cell-based; settings: tunicamycin 2 hours, read-out: Cellular IC50 (μM) (EIF2a)
PERK, sequence (Q9NZJ5 30-1116): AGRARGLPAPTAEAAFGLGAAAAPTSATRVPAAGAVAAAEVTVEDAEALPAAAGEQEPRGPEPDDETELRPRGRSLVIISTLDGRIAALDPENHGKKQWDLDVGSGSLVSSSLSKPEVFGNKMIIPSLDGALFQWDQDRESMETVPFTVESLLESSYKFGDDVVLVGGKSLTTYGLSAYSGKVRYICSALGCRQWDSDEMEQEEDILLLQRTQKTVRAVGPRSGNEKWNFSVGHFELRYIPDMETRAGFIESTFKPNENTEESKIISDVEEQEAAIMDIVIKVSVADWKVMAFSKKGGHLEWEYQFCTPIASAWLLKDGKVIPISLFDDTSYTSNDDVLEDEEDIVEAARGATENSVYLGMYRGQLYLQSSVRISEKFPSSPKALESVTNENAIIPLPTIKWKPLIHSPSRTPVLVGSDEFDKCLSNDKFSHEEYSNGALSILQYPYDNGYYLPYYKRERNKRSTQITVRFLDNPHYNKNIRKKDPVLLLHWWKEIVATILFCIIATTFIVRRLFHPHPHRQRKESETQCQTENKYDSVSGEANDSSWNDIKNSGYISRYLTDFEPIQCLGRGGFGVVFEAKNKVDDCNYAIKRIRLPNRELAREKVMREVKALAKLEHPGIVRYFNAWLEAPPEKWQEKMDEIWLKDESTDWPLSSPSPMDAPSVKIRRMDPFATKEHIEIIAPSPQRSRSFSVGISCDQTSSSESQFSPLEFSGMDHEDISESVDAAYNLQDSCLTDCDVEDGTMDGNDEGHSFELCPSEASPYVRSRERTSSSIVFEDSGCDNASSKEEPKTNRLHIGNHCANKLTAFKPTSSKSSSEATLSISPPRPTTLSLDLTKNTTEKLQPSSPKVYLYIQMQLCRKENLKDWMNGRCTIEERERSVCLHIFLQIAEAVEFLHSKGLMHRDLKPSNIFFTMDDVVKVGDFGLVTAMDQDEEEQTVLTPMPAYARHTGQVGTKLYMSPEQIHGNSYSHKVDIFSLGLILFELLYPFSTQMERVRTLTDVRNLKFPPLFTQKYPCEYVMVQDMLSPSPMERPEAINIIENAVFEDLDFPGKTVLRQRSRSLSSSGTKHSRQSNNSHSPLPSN
Summary of the method: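 After 2 h tunicamycin ([…]) stress following 30 min compound pretreatment at 37 °C, lysed HEK293-EGFP-eIF2α cells were read by TR-FRET. IC50 derived by 4-parameter logistic fitting of percent inhibition, DMSO-normalized, from 10-point 3-fold dilutions.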

EIF2AK3 (PERK) catalytic domain (amino acids 536-1116), sequence (Q9NZJ5 536-1116): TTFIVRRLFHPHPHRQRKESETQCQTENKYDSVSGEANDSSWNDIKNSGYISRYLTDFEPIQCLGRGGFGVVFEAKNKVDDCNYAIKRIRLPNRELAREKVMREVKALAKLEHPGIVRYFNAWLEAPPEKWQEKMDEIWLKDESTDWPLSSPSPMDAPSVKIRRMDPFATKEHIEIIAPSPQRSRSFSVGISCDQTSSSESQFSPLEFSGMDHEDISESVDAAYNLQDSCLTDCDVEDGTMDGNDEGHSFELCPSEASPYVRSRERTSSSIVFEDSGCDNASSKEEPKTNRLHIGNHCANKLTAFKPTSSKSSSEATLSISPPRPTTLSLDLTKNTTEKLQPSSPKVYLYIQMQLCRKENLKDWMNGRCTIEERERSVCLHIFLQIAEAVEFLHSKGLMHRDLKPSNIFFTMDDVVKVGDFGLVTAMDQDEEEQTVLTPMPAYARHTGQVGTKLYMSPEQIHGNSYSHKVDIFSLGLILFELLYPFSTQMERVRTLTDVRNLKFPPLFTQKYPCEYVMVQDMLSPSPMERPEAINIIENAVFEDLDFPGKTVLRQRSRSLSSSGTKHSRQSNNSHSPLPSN

Structure (SMILES)	IC50 [1] [nM]	IC50 (PERK) [µM]
CCNC(=O)c1cc(-c2ccc(NC(=O)C(O)c3cc(F)cc(F)c3)c(F)c2C)cnc1N (stereo not shown) [Example 117, 2-amino-5-(4-(2-(3,5-difluorophenyl)-2-hydroxyacetamido)-3-fluoro-2-methylphenyl)-N-ethylnicotinamide]	1 to 25	0.001 to 0.025
CCNC(=O)c1cc(-c2ccc(NC(=O)C(O)c3cc(F)cc(F)c3)c(F)c2C)cnc1N (stereo not shown) [Example 118, 2-amino-5-(4-(2-(3,5-difluorophenyl)-2-hydroxyacetamido)-3-fluoro-2-methylphenyl)-N-ethylnicotinamide]	1 to 25	0.026 to 0.05
Cc1c(-c2cnc(N)c(C(=O)NC3CC3)c2)ccc(NC(=O)C(O)c2cc(F)cc(F)c2)c1F (stereo not shown) [Example 119, 2-amino-N-cyclopropyl-5-(4-(2-(3,5-difluorophenyl)-2-hydroxyacetamido)-3-fluoro-2-methylphenyl) nicotinamide]	1 to 25	0.001 to 0.025
Cc1c(-c2cnc(N)c(C(=O)NC3CC3)c2)ccc(NC(=O)C(O)c2cc(F)cc(F)c2)c1F (stereo not shown) [Example 120, 2-amino-N-cyclopropyl-5-(4-(2-(3,5-difluorophenyl)-2-hydroxyacetamido)-3-fluoro-2-methylphenyl) nicotinamide]	1 to 25	0.051 to 0.1
Cc1c(-c2cnc(N)c(C(=O)NC3COC3)c2)ccc(NC(=O)C(O)c2cc(F)cc(F)c2)c1F (stereo not shown) [Example 121, 2-amino-5-(4-(2-(3,5-difluorophenyl)-2-hydroxyacetamido)-3-fluoro-2-methylphenyl)-N-(oxetan-3-yl)nicotinamide]	1 to 25	0.001 to 0.025
Cc1c(-c2cnc(N)c(C(=O)NC3COC3)c2)ccc(NC(=O)C(O)c2cc(F)cc(F)c2)c1F (stereo not shown) [Example 122, 2-amino-5-(4-(2-(3,5-difluorophenyl)-2-hydroxyacetamido)-3-fluoro-2-methylphenyl)-N-(oxetan-3-yl)nicotinamide]	251 to 500	0.501 to 1
Cc1cc(NC(=O)C(O)c2cc(F)cc(F)c2)ccc1-c1cnc(N)c(C(=O)NC(C)C)n1 (stereo not shown) [Example 133, 3-amino-6-(4-(2-(3,5-difluorophenyl)-2-hydroxyacetamido)-2-methylphenyl)-N-isopropylpyrazine-2 carboxamide]	51 to 100	0.101 to 0.25
Cc1cc(NC(=O)C(O)c2cc(F)cc(F)c2)ccc1-c1cnc(N)c(C(=O)NC(C)C)n1 (stereo not shown) [Example 134, 3-amino-6-(4-(2-(3,5-difluorophenyl)-2-hydroxyacetamido)-2-methylphenyl)-N-isopropylpyrazine-2-carboxamide]	1 to 25	0.026 to 0.05
CNC(=O)c1nc(-c2ccc(NC(=O)C(O)c3cc(F)cc(F)c3)cc2C)cnc1N (stereo not shown) [Example 135, 3-amino-6-(4-(2-(3,5-difluorophenyl)-2-hydroxyacetamido)-2-methylphenyl)-N-methylpyrazine-2-carboxamide]	1 to 25	0.026 to 0.05
Cc1cc(NC(=O)C(O)c2cc(F)cc(F)c2)ccc1-c1cnc(N)c(C(=O)NC2CC2)n1 (stereo not shown) [Example 138, 3-amino-N-cyclopropyl-6-(4-(2-(3,5-difluorophenyl)-2-hydroxyacetamido)-2-methylphenyl) pyrazine-2-carboxamide]	1 to 25	0.026 to 0.05
Cc1cc(NC(=O)C(O)c2cc(F)cc(F)c2)ccc1-c1cnc(N)c(C(=O)NC2CC2)n1 (stereo not shown) [Example 139, 3-amino-N-cyclopropyl-6-(4-(2-(3,5-difluorophenyl)-2-hydroxyacetamido)-2-methylphenyl) pyrazine-2-carboxamide]	1 to 25	0.251 to 0.5
Cc1cc(NC(=O)C(O)c2cc(F)cc(F)c2)ccc1-c1cnc(N)c(C(=O)NCCN(C)C)n1 (stereo not shown) [Example 146, 3-amino-6-(4-(2-(3,5-difluorophenyl)-2-hydroxyacetamido)-2-methylphenyl)-N-(2-(dimethylamino)ethyl)pyrazine-2-carboxamide]	26 to 50	0.101 to 0.25
CCNC(=O)c1nc(-c2ccc(NC(=O)C(O)c3cc(F)cc(F)c3)cc2CC)cnc1N (stereo not shown) [Example 153, 3-amino-6-(4-(2-(3,5-difluorophenyl)-2-hydroxyactamido)-2-ethylphenyl)-N-ethylpyrazine-2-carboxamide]	1 to 25	0.026 to 0.05
CCc1cc(NC(=O)C(O)c2cc(F)cc(F)c2)ccc1-c1cnc(N)c(C(=O)NC2CC2)n1 (stereo not shown) [Example 156, 3-amino-N-cyclopropyl-6-(4-(2-(3,5-difluorophenyl)-2-hydroxyacetamido)-2-ethylphenyl)pyrazine-2-carboxamide]	1 to 25	0.001 to 0.025

Other lines, results leading:

IC50 [1] [nM]	IC50 (PERK) [µM]	Structure (SMILES)
1 to 25	0.001 to 0.025	CCc1cc(NC(=O)C(O)c2cccc(C(F)(F)F)c2)ccc1-c1cnc(N)c(C(=O)NC(C)C)c1 (stereo not shown) [Example 110, 2-amino-5-(2-ethyl-4-(2-hydroxy-2-(3-(trifluoromethyl)phenyl)acetamido)phenyl)-N-isopropylnicotinamide]
101 to 250	0.101 to 0.25	CCc1cc(NC(=O)C(O)c2cccc(C(F)(F)F)c2)ccc1-c1cnc(N)c(C(=O)NC(C)C)c1 (stereo not shown) [Example 111, 2-amino-5-(2-ethyl-4-(2-hydroxy-2-(3-(trifluoromethyl)phenyl)acetamido)phenyl)-N-isopropylnicotinamide]
51 to 100	0.251 to 0.5	COc1cc(NC(=O)C(O)c2cc(F)cc(F)c2)ccc1-c1cnc(N)c(C(=O)NC(C)C)c1 (stereo not shown) [Example 112, 2-amino-5-(4-(2-(3,5-difluorophenyl)-2-hydroxyacetamido)-2-methoxyphenyl)-N-isopropylnicotinamide]
51 to 100	0.501 to 1	CC(C)NC(=O)c1cc(-c2ccc(NC(=O)C(O)c3cc(F)cc(F)c3)cc2OC(F)(F)F)cnc1N (stereo not shown) [Example 113, 2-amino-5-(4-(2-(3,5-difluorophenyl)-2-hydroxyacetamido)-2-(trifluoromethoxy)phenyl)-N-isopropylnicotinamide]
251 to 500	> 5	CC(C)NC(=O)c1cc(-c2ccc(NC(=O)C(O)c3cc(F)cc(F)c3)cc2OC(F)(F)F)cnc1N (stereo not shown) [Example 114, 2-amino-5-(4-(2-(3,5-difluorophenyl)-2-hydroxyacetamido)-2-(trifluoromethoxy)phenyl)-N-isopropylnicotinamide]
1 to 25	0.001 to 0.025	Cc1c(-c2cnc(N)c(C(=O)NC(C)C)c2)ccc(NC(=O)C(O)c2cc(F)cc(F)c2)c1F (stereo not shown) [Example 115, 2-amino-5-(4-(2-(3,5-difluorophenyl)-2-hydroxyacetamido)-3-fluoro-2-methylphenyl)-N-isopropylnicotinamide]
251 to 500	1 to 2	Cc1c(-c2cnc(N)c(C(=O)NC(C)C)c2)ccc(NC(=O)C(O)c2cc(F)cc(F)c2)c1F (stereo not shown) [Example 116, 2-amino-5-(4-(2-(3,5-difluorophenyl)-2-hydroxyacetamido)-3-fluoro-2-methylphenyl)-N-isopropylnicotinamide]
1 to 25	0.001 to 0.025	CC(C)NC(=O)c1cc(-c2ccc(NC(=O)C(O)c3cc(F)cc(F)c3)c(F)c2Cl)cnc1N (stereo not shown) [Example 123, 2-amino-5-(2-chloro-4-(2-(3,5-difluorophenyl)-2-hydroxyacetamido)-3-fluorophenyl)-N-isopropylnicotinamide]
26 to 50	0.051 to 0.1	CC(C)NC(=O)c1cc(-c2ccc(NC(=O)C(O)c3cc(F)cc(F)c3)c(F)c2Cl)cnc1N (stereo not shown) [Example 124, 2-amino-5-(2-chloro-4-(2-(3,5-diflouorophenyl)-2-hydroxyacetamido)-3-fluorophenyl)-N-isopropylnicotinamide]
101 to 250	0.501 to 1	Cc1cc(NC(=O)C(O)c2cc(F)cc(F)c2)c(F)cc1-c1cnc(N)c(C(=O)NC(C)C)c1 (stereo not shown) [Example 125, 2-amino-5-(4-(2-(3,5-difluorophenyl)-2-hydroxyacetamido)-5-fluoro-2-methylphenyl)-N-isopropylnicotinamide]
1 to 25	0.101 to 0.25	Cc1cc(NC(=O)C(O)c2cc(F)cc(F)c2)c(F)cc1-c1cnc(N)c(C(=O)NC(C)C)c1 (stereo not shown) [Example 126, 2-amino-5-(4-(2-(3,5-difluorophenyl)-2-hydroxyacetamido)-5-fluoro-2-methylphenyl)-N-isopropylnicotinamide]
251 to 500	> 5	Cc1cc(NC(=O)C(O)c2cccc(C(F)(F)F)c2)ncc1-c1cnc(N)c(C(=O)NC(C)C)c1 (stereo not shown) [Example 127, 6-amino-6′-(2-hydroxy-2-(3-(trifluoromethyl)phenyl)acetamido)-N-isopropyl-4′-methyl-[3,3′-bipyridine]-5-carboxamide]
51 to 100	> 5	Cc1cc(NC(=O)C(O)c2cccc(C(F)(F)F)c2)ncc1-c1cnc(N)c(C(=O)NC(C)C)c1 (stereo not shown) [Example 128, 6-amino-6′-(2-hydroxy-2-(3-(trifluoromethyl)phenyl)acetamido)-N-isopropyl-4′-methyl-[3,3′-bipyridine]-5-carboxamide]
1 to 25	0.026 to 0.05	CCc1cc(NC(=O)C(O)c2cc(F)cc(F)c2)ccc1-c1cnc(N)c(C(=O)NC(C)C)n1 (stereo not shown) [Example 151, 3-amino-6-(4-(2-(3,5-difluorophenyl)-2-hydroxyacetamido)-2-ethylphenyl)-N-isopropylpyrazine-2-carboxamide]
101 to 250	0.101 to 0.25	CCc1cc(NC(=O)C(O)c2cc(F)cc(F)c2)ccc1-c1cnc(N)c(C(=O)NC(C)C)n1 (stereo not shown) [Example 152, 3-amino-6-(4-(2-(3,5-difluorophenyl)-2-hydroxyacetamido)-2-ethylphenyl)-N-isopropylpyrazine-2-carboxamide]
